Measured values reported in US12201684B2, “Compositions for stimulation of mammalian innate immune resistance to pathogens” (priority 2009, dated 2025).

How the values were obtained:
[1] = system: P. aeruginosa strain PA103; assay: In vivo inhalational P. aeruginosa challenge, survival; conditions: wild type mice; aerosolized treatment 24 h prior to challenge
[2] = system: neutrophils and macrophages in BAL fluid; assay: Bronchoalveolar lavage fluid leukocyte counts after aerosolized TLR ligands; assay type: in vivo, mice
[3] = cited from earlier work

CC(C)Cn1cnc2c(N)nc3ccccc3c21 [imiquimod, 1-(2-methylpropyl)-1H-imidazo[4,5-c]quinolin-4-amine]
protection against lethal P. aeruginosa pneumonia (survival) [1]: trend towards protection | neutrophil infiltration above a certain ligand concentration ([2]; BAL 24 h after treatment, highest concentrations tested): reduction in neutrophil infiltration

poly(I:C)
influx of macrophages on BAL ([2]; 24 h after treatment): significant influx

monophosphoryl lipid A-synthetic [MPLA]
protection against lethal P. aeruginosa pneumonia (survival) [1]: non-significant trend towards increased mortality

CCC(=O)O[C@]1(C(=O)SCF)[C@H](C)C[C@H]2[C@@H]3C[C@H](F)C4=CC(=O)C=C[C@]4(C)[C@@]3(F)[C@@H](O)C[C@@]21C [Fluticasone propionate, S-(fluromethyl)6α,9-difluoro-11β-17-dihydroxy-16α-methyl-3-oxoandrosta-1,4-diene-17β-carbothioate, 17-propionate]
solubility in dimethyl sulfoxide and dimethylformamide [3]: freely soluble | solubility in methanol and 95% ethanol [3]: slightly soluble | solubility in water [3]: practically insoluble
